From the NIST ThermoML archive (doi:10.1021/je300819g)

Settings: Liquid, Ebulliometric method (Recirculating still)

CCNCCN [N-ethylethane-1,2-diamine]
Settings	vapor or sublimation pressure [kPa]
358 K	20.8
366.5 K	29.6
374.1 K	39.5
380.3 K	49.7
390.2 K	69.5
398.3 K	90.2
401.9 K	101.2
402.2 K	101.5
